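These data come from cells grown in 96-well plates and exposed to compound for 48 hours at five concentrations. The concentration for 50% growth inhibition is given as GI50.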 Active and inactive are the calls of the source. No stated cut-off is given here; in the data, active = GI50 up to about 1.1 µM and inactive = higher.
Experiments:
Test in all cases: inhibition of tumour cell growth, NCI panel, 48 h
A549 = test system: A549
SNB-75 = test system: SNB-75
HCT-15 = test system: HCT-15
IGROV-1 = test system: IGROV-1
UACC-257 = test system: UACC-257
CCRF-CEM = test system: CCRF-CEM
CAKI-1 = test system: CAKI-1
NCI-H23 = test system: NCI-H23
SNB-19 = test system: SNB-19
EKVX = test system: EKVX
T47D = test system: T47D
OVCAR-4 = test system: OVCAR-4
U-251 = test system: U-251
MCF7 = test system: MCF7
SN12C = test system: SN12C
SK-MEL-2 = test system: SK-MEL-2
PC-3 = test system: PC-3

SMILES | GI50 (A549) | GI50 (SNB-75) | GI50 (HCT-15) [µM] | GI50 (IGROV-1) | GI50 (UACC-257) | GI50 (CCRF-CEM) | GI50 (CAKI-1) | GI50 (NCI-H23) | GI50 (SNB-19) | GI50 (EKVX) | GI50 (T47D) | GI50 (OVCAR-4) | GI50 (U-251) | GI50 (MCF7) | GI50 (SN12C) | GI50 (SK-MEL-2) | GI50 (PC-3)
Cn1ncc2c(NCc3ccccc3)ncnc21 | > 100 µM (inactive) | 50.6 µM (inactive) | > 100 | > 100 µM (inactive) | > 100 µM (inactive) | > 100 µM (inactive) | > 100 µM (inactive) | > 100 µM (inactive) | > 100 µM (inactive) | > 100 µM (inactive) | > 100 µM (inactive) | > 100 µM (inactive) | > 100 µM (inactive) | > 100 µM (inactive) | > 100 µM (inactive) | – | –
CCCCC(C)C(OC(=O)CC(CC(=O)O)C(=O)O)C(CC(C)CC(O)CCCCC(O)CC(O)C(C)N)OC(=O)CC(CC(=O)O)C(=O)O (stereo not given) | > 100 µM (inactive) | > 78.3 µM (inactive) | > 100 | > 100 µM (inactive) | > 100 µM (inactive) | > 100 µM (inactive) | > 100 µM (inactive) | > 100 µM (inactive) | > 100 µM (inactive) | > 100 µM (inactive) | – | > 100 µM (inactive) | > 100 µM (inactive) | – | > 100 µM (inactive) | > 100 µM (inactive) | –
CCn1c(-c2cc(OC)cc(OC)c2)nc2c1C(=O)c1ccccc1C2=O | > 100 µM (inactive) | 22.4 µM (inactive) | > 100 | > 100 µM (inactive) | > 100 µM (inactive) | > 100 µM (inactive) | – | > 100 µM (inactive) | > 100 µM (inactive) | > 100 µM (inactive) | > 100 µM (inactive) | > 100 µM (inactive) | > 100 µM (inactive) | > 100 µM (inactive) | > 100 µM (inactive) | – | > 100 µM (inactive)
COc1cc(C=O)cc(/C=N/N=C/c2ccccc2O)c1O | 79.6 µM (inactive) | – | 40.1 | 40.1 µM (inactive) | 32.9 µM (inactive) | 8.85 µM (inactive) | 19.8 µM (inactive) | 23.6 µM (inactive) | 32.3 µM (inactive) | – | 4.71 µM (inactive) | > 100 µM (inactive) | 29.8 µM (inactive) | 64.7 µM (inactive) | 17.6 µM (inactive) | 17.3 µM (inactive) | 12.1 µM (inactive)
O=C(Cn1c(-c2ccccc2)cc2ccccc21)N1CCCC1 | > 100 µM (inactive) | > 100 µM (inactive) | > 100 | > 100 µM (inactive) | > 100 µM (inactive) | – | – | – | > 100 µM (inactive) | > 100 µM (inactive) | > 100 µM (inactive) | > 100 µM (inactive) | – | > 100 µM (inactive) | > 100 µM (inactive) | > 100 µM (inactive) | > 100 µM (inactive)
O=c1[nH]c(=O)n(COCCO)c2ccc(Br)cc12 | > 100 µM (inactive) | 39 µM (inactive) | 45.9 | 77.1 µM (inactive) | > 100 µM (inactive) | > 100 µM (inactive) | > 100 µM (inactive) | – | 50.6 µM (inactive) | 92.3 µM (inactive) | – | > 100 µM (inactive) | > 100 µM (inactive) | > 100 µM (inactive) | > 100 µM (inactive) | > 100 µM (inactive) | –
Cc1c(C(=O)C(=O)c2ccccc2)c(C)c(C(=O)C(=O)c2ccccc2)c(C)c1C(=O)C(=O)c1ccccc1 | > 100 µM (inactive) | > 100 µM (inactive) | > 100 | > 100 µM (inactive) | > 100 µM (inactive) | > 100 µM (inactive) | – | – | > 100 µM (inactive) | > 100 µM (inactive) | > 100 µM (inactive) | > 100 µM (inactive) | > 100 µM (inactive) | > 100 µM (inactive) | > 100 µM (inactive) | – | > 100 µM (inactive)
C(=N\OCCc1ccccc1)/c1cccnc1 | > 100 µM (inactive) | 71.6 µM (inactive) | > 100 | > 100 µM (inactive) | > 100 µM (inactive) | > 100 µM (inactive) | – | > 100 µM (inactive) | > 100 µM (inactive) | > 100 µM (inactive) | > 100 µM (inactive) | > 100 µM (inactive) | > 100 µM (inactive) | > 100 µM (inactive) | > 100 µM (inactive) | > 100 µM (inactive) | > 100 µM (inactive)
O=C1/C(=C/c2ccc(Br)s2)NC(=S)N1c1ccccc1 | – | – | 80.5 | 69.3 µM (inactive) | 65.6 µM (inactive) | > 100 µM (inactive) | 44.5 µM (inactive) | > 100 µM (inactive) | 26.9 µM (inactive) | > 100 µM (inactive) | – | 27 µM (inactive) | 36.6 µM (inactive) | 34.5 µM (inactive) | 74.3 µM (inactive) | > 100 µM (inactive) | > 100 µM (inactive)

— ChEMBL document CHEMBL1201862, “PubChem BioAssay data set” (2004)
